Measured values published in US6642251B1, “Geometrically restricted 2-indolinone derivatives as modulators of protein kinase activity” (Sugen, Inc., priority 1998, dated 2003).

Test system: A375 cells (melanoma)
Assay: A375 sc xenograft animal model
Format: in vivo, athymic mice (BALB/c, nu/nu)
Conditions: for % inhibition: vs vehicle
Description: The ability of human tumors to grow as xenografts in athymic mice (e.g., Balb/c, nu/nu) provides a useful in vivo model for studying the biological response to therapies for human tumors. Since the first successful xeno-transplantation of human tumors into athymic mice, (Rygaard and Poylsen, 1969, Acta Pathol. Microbial. Scand., 77:758-760), many different human tumor cell lines (e.g., mammary, lung, genitourinary, gastro-intestinal, head and neck, glioblastoma, bone, and malignant melanomas) have been transplanted and successfully grown in nude mice. The following assays may be used to determine the level of activity, specificity and effect of the different compounds of the present invention. Three general types of assays are useful for evaluating compounds: cellular/catalytic, cellular/biological and in vivo. The object of the cellular/catalytic assays is to determine the effect of a compound on the ability of a TK to phosphorylate tyrosines on a known substrate in a cell. The object of the cellular/biological assays is to determine the effect of a compound on the biological response stimulated by a TK in a cell. The object of the in vivo assays is to determine the effect of a compound in an animal model of a particular disorder such as cancer.
Suitable cell lines for subcutaneous xenograft experiments include C6 cells (glioma, ATCC #CCL 107), A375 cells (melanoma, ATCC #CRL 1619), A431 cells (epidermoid carcinoma, ATCC #CRL 1555), Calu 6 cells (lung, ATCC #HTB 56), PC3 cells (prostate, ATCC #CRL 1435), SKOV3TP5 cells and NIH 3T3 fibroblasts genetically engineered to overexpress EGFR, PDGFR, IGF-1R or any other test kinase. The following protocol can be used to perform xenograft experiments:
Female athymic mice (BALB/c, nu/nu) are obtained from Simonsen Laboratories (Gilroy, Calif.). All animals are maintained under clean-room conditions in Micro-isolator cages with Alpha-dri bedding. They receive sterile rodent chow and water ad libitum.
Cell lines are grown in appropriate medium (for example, MEM, DMEM, Ham's F10, or Ham's F12 plus 5%-10% fetal bovine serum (FBS) and 2 mM glutamine (GLN)). All cell culture media, glutamine, and fetal bovine serum are purchased from Gibco Life Technologies (Grand Island, N.Y.) unless otherwise specified. All cells are grown in a humid atmosphere of 90-95% air and 5-10% CO2 at 37° C. All cell lines are routinely subcultured twice a week and are negative for mycoplasma as determined by the Mycotect method (Gibco).
Cells are harvested at or near confluency with 0.05% Trypsin-EDTA and pelleted at 450×g for 10 min. Pellets are resuspended in sterile PBS or media (without FBS) to a particular concentration and the cells are implanted into the hindflank of the mice (8-10 mice per group, 2-10×10^6 cells/animal). Tumor growth is measured over 3 to 6 weeks using venier calipers. Tumor volumes are calculated as a product of length×width×height unless otherwise indicated. P values are calculated using the Students t-test. Test compounds in 50-100 μL excipient (DMSO, or VPD:D5W (U.S. Pat. No. 5,610,173 to Sxhwartz, et al.), can be delivered by IP injection at different concentrations generally starting at day one after implantation.

COc1ccc2c(c1)C(CC(=O)[O-])CC2=C1C(=O)Nc2ccccc21.[Na+] (stereo not drawn) [Compound 13, [6-Methoxy-3-(2-oxo-1,2-dihydroindol-3-ylidene)-indan-1-yl]acetic Acid Sodium Salt]
Average Tumor Volume (50 mg/kg/day): 569.9 mm3 | % inhibition (50 mg/kg/day): 24.6% | Average Tumor Volume (100 mg/kg/day): 324.4 mm3 | % inhibition (100 mg/kg/day): 57.1% | Average Tumor Volume (200 mg/kg/day): 278.8 mm3 | % inhibition (200 mg/kg/day): 63.1%
